Patent EP4707280A1, “1,4-CINEOLE DERIVATIVE AND INTERMEDIATE THEREOF, HERBICIDE CONTAINING SAID DERIVATIVE AS ACTIVE INGREDIENT, METHOD FOR USING HERBICIDE, AND METHOD FOR PREPARING AGROCHEMICAL COMPOSITION” (HOKKO CHEMICAL INDUSTRY CO., LTD., priority 2023, dated 2024)

Columns and labels:
Type in all cases: in vivo
[1] = tested on: Echinochloa crus-galli var. formosensis; assay: Test Example 1: herbicidal effect test by soil application in paddy rice; settings: Echinochloa crus-galli, soil, 336 h; 120 g active ingredient per 10 ares; applied immediately after sowing, flooded pots; 14 days after application; read-out: weed inhibition rate
Method in brief: (§1)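 Paddy soil in Wagner pots (1/10,000 acre), fertilized and puddled; 30 seeds per species sown at 0–1 cm, flooded to ~3 cm, greenhouse. Water-diluted emulsifiable concentrate dropped onto flooded pots right after sowing at 120 g active ingredient per 10 ares.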

[2] = tested on: Scirpus juncoides; assay: as above; settings: Schoenoplectiella juncoides, soil, 336 h; 120 g active ingredient per 10 ares; applied immediately after sowing, flooded pots; 14 days after application; read-out: weed inhibition rate
Method in brief: as §1

[3] = tested on: Digitaria ciliaris; assay: Test Example 8: herbicidal effect test by stem and leaf treatment in upland field (low dose); settings: Digitaria ciliaris; 7.5 g per 10 ares; sprayed seven days after sowing, upland soil; 14 days after application; read-out: weed inhibition rate
[4] = tested on: Echinochloa crus-galli; assay: as above; settings: Echinochloa crus-galli; 7.5 g per 10 ares; sprayed seven days after sowing, upland soil; 14 days after application; read-out: weed inhibition rate
[5] = tested on: Digitaria ciliaris; assay: Test Example 3: herbicidal effect test by soil application in upland field; settings: Digitaria ciliaris, 120 g per 10 ares, sprayed one day after sowing, 14 days after application, read-out: weed inhibition rate
Method in brief: (§2)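 Pre-emergence test: seeds mixed into top 1 cm of alluvial loam upland soil in pots; emulsifiable concentrate diluted in water sprayed on soil one day after sowing at 100 L/10 a, 120 g a.i./10 a. Weed inhibition rate (%) scored at 14 days, in duplicate.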

[6] = tested on: Echinochloa crus-galli; assay: as above; settings: Echinochloa crus-galli, 120 g per 10 ares, sprayed one day after sowing, 14 days after application, read-out: weed inhibition rate
Method in brief: as §2

[7] = tested on: Monochoria vaginalis; assay: Test Example 1: herbicidal effect test by soil application in paddy rice; settings: Pontederia vaginalis, soil, 336 h; 120 g active ingredient per 10 ares; applied immediately after sowing, flooded pots; 14 days after application; read-out: weed inhibition rate
Method in brief: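 Pre-emergence test in puddled, flooded paddy soil (about 3 cm water), 30 seeds per weed sown at 0–1 cm depth in a glass greenhouse. Emulsifiable concentrate diluted in water and dropped onto the pots straight after sowing at 120 g a.i. per 10 ares. Weed inhibition (%) scored at 14 days, in duplicate.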

[8] = tested on: Echinochloa crus-galli; assay: Test Example 4: herbicidal effect test by stem and leaf treatment in upland field; settings: Echinochloa crus-galli; 120 g per 10 ares; sprayed seven days after sowing, upland soil; 14 days after application; read-out: weed inhibition rate
[9] = tested on: Echinochloa crus-galli; assay: Test Example 7: herbicidal effect test by soil application in upland field (low dose); settings: Echinochloa crus-galli, 7.5 g per 10 ares, sprayed one day after sowing, 14 days after application, read-out: weed inhibition rate
Method in brief: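 Read-out: weed inhibition rate (%) at 14 d post-treatment, duplicate pots per concentration. Seeds sown in the top 1 cm of upland alluvial loam; emulsifiable concentrate diluted in water and sprayed on the soil surface 1 d after sowing at 7.5 g a.i./10 a (100 L/10 a spray volume).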

[10] = tested on: Echinochloa crus-galli var. formosensis; assay: Test Example 6: herbicidal effect test by application during growth period of paddy rice (low dose); settings: Echinochloa crus-galli; 7.5 g per 10 ares; applied seven days after sowing, flooded pots; 14 days after application; read-out: weed inhibition rate
Method in brief: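 Low-dose water application, 7.5 g a.i. per 10 ares, given by dropper into flooded pots (about 3 cm depth) 7 days after sowing of 30 weed seeds each at 0–1 cm. Evaluation of inhibition (%) took place 14 days later, duplicate per rate.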

[11] = tested on: Digitaria ciliaris; assay: Test Example 4: herbicidal effect test by stem and leaf treatment in upland field; settings: Digitaria ciliaris; 120 g per 10 ares; sprayed seven days after sowing, upland soil; 14 days after application; read-out: weed inhibition rate

CC(C)[C@]12C=C[C@](C)(O1)[C@H](OCc1c(F)cccc1F)C2 [3-7, (1R,4S,5R)-5-[(2,6-difluorophenyl)methoxy]-4-methyl-1-isopropyl-7-oxabicyclo[2.2.1]hept-2-ene]
≥ 80%: pest or weed control at 1200 g/ha [1] | pest or weed control at 1200 g/ha [2] | inhibition at 75 g/ha [3] | inhibition at 75 g/ha [4] | inhibition at 1200 g/ha [5] | inhibition at 1200 g/ha [6] | pest or weed control at 1200 g/ha [7] | inhibition at 1200 g/ha [8] | inhibition at 75 g/ha [9] | inhibition at 75 g/ha [10] | inhibition at 1200 g/ha [11]
